Results from ChEMBL document CHEMBL5500402, “Potent, Selective Agonists for the Cannabinoid-like Orphan G Protein-Coupled Receptor GPR18: A Promising Drug Target for Cancer and Immunity” (J Med Chem, 2024).

Key:
[1] = target: T1, N-arachidonyl glycine receptor (Mus musculus, UniProt Q8K1Z6)
T1 sequence (Q8K1Z6 whole entry): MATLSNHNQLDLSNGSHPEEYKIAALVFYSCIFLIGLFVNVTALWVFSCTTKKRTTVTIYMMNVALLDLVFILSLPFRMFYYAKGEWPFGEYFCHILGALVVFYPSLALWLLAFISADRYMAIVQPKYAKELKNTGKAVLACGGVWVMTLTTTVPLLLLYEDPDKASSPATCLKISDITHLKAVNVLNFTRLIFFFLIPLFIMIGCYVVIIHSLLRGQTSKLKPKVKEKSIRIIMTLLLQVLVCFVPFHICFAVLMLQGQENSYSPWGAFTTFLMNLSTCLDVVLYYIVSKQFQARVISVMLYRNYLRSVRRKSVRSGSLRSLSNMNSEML
Description: Agonist activity at mouse GPR18 expressed in CHO cells assessed as activation by measuring beta-arrestin2 recruitment incubated for 90 mins by luminescence based assay

[2] = target: Cannabinoid receptor 2 (Homo sapiens, UniProt P34972); test: Displacement of [3H]-CP55940 from human CB2 receptor expressed in CHO cells assessed as inhibition constant by radioligand competition binding assay; type: cell-based
Cannabinoid receptor 2, sequence (P34972 whole entry): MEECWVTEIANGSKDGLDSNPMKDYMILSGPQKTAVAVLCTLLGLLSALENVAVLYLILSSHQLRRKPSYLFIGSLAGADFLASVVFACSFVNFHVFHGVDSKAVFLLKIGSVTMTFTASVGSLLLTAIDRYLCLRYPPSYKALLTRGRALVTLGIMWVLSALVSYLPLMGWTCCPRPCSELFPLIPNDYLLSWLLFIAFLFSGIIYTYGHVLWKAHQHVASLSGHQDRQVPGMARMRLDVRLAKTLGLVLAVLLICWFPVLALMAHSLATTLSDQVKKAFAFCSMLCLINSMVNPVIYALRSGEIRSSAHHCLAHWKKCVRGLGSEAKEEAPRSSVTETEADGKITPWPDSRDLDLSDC

[3] = target: T2, N-arachidonyl glycine receptor (Homo sapiens, UniProt Q14330); test: Agonist activity at human GPR18 expressed in CHO cells assessed as activation by measuring beta-arrestin2 recruitment incubated for 90 mins by luminescence based assay; type: functional, cell-based
T2 sequence (Q14330 whole entry): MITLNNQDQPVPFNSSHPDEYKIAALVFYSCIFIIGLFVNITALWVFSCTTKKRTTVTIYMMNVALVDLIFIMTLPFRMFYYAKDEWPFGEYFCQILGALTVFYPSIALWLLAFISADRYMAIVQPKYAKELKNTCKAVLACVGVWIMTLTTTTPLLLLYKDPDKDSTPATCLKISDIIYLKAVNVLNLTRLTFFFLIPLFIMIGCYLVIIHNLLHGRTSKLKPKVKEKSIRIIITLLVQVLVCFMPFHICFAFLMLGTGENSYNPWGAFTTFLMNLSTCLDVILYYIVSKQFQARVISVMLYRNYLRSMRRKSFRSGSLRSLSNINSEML

[4] = target: Cannabinoid receptor 1 (Homo sapiens, UniProt P21554); test: Displacement of [3H]-CP55940 from human CB1 receptor expressed in CHO cells assessed as inhibition constant by radioligand competition binding assay; type: cell-based
Cannabinoid receptor 1, sequence (P21554 whole entry): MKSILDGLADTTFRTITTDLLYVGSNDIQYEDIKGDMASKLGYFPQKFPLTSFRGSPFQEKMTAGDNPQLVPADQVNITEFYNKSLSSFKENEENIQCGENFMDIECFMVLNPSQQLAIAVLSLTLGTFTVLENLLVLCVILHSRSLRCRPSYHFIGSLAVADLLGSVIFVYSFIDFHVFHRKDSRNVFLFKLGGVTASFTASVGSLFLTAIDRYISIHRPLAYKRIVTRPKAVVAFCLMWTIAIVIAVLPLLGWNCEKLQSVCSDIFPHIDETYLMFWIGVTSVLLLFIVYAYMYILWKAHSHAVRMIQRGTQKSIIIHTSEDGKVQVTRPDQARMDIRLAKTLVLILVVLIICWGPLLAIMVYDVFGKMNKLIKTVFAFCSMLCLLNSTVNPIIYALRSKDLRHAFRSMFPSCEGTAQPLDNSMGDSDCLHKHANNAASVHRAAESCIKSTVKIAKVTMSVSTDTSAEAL

[5] = target: T2, N-arachidonyl glycine receptor
[6] = target: T2, N-arachidonyl glycine receptor; test: Antagonist activity at human GPR18 receptor expressed in CHO cells assessed as inhibition of THC-induced activation by measuring beta-arrestin2 recruitment
[7] = target: G-protein coupled receptor 183 (Homo sapiens, UniProt P32249); test: Agonist activity at human GPR183 expressed in PathHunter CHO-K1 cells assessed as activation by measuring beta-arrestin2 recruitment
G-protein coupled receptor 183, sequence (P32249 whole entry): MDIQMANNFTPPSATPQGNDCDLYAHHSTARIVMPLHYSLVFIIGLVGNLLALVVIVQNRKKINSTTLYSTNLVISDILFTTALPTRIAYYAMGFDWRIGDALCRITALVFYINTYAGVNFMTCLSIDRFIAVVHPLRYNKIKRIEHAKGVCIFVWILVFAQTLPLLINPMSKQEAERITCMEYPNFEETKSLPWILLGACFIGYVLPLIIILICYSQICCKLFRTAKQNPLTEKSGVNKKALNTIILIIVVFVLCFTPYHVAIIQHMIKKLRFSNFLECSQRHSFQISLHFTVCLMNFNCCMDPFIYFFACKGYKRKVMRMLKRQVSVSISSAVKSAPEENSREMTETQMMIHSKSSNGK

[8] = target: T3, G-protein coupled receptor 55 (Homo sapiens, UniProt Q9Y2T6); test: Antagonist activity at human GPR55 expressed in CHO-K1 cells assessed as inhibition of beta-arrestin2 recruitment
T3 sequence (Q9Y2T6 whole entry): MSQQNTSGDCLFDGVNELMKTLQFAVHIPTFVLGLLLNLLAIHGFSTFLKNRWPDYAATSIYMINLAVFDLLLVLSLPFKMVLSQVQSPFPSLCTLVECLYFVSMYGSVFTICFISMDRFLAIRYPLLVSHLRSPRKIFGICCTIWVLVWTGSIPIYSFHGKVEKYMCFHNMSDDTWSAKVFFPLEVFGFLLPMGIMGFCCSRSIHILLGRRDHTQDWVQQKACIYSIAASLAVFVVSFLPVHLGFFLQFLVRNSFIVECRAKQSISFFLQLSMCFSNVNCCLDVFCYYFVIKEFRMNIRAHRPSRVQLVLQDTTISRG

[9] = target: T3, G-protein coupled receptor 55; test: Agonist activity at human GPR55 expressed in CHO-K1 cells by beta-arrestin2 recruitment assay
[10] = target: T2, N-arachidonyl glycine receptor; test: Agonist activity at human GPR18-eYFP and Renilla luc expressed in CHO cells assessed as beta-arrestin2 recruitment by BRET/beta-arrestin2 enzyme complementation assay

Cn1c(=O)c2c(nc(NCCc3c[nH]c4ccccc34)n2CCOc2ccccc2)n(C)c1=O
EC50 [1]: 334 nM

Cn1c(=O)c2c(nc(NCCc3c[nH]c4ccccc34)n2Cc2ccccc2Cl)n(C)c1=O
EC50 [1]: 157 nM
Ki [2]: > 10000 nM
EC50 [3]: 60 nM
Ki ([4]; read-out: Ki): > 10000 nM

CCCNS(=O)(=O)c1ccc(Cn2c(NCCc3c[nH]c4ccccc34)nc3c2c(=O)n(C)c(=O)n3C)cc1
EC50 [1]: 1300 nM

O=C1/C(=C/c2cccc(OCCCCCCOc3ccc(Cl)cc3)c2)N=C2SCCCN12
IC50 [5]: 9910 nM
IC50 [6]: 487 nM

Cn1c(=O)c2c(nc(NCCc3c[nH]c4ccccc34)n2Cc2ccc(F)c(F)c2)n(C)c1=O
EC50 [1]: 161 nM
EC50 [3]: 142 nM

Cn1c(=O)c2c(nc(NCCc3c[nH]c4ccccc34)n2CCOc2ccc(Cl)cc2)n(C)c1=O
EC50 [1]: 444 nM

Cn1c(=O)c2c(nc(NCCc3c[nH]c4ccccc34)n2CCF)n(C)c1=O
EC50 [1]: 2640 nM
EC50 [3]: 1390 nM

Cn1c(=O)c2c(nc(NCCc3c[nH]c4ccccc34)n2C)n(C)c1=O
EC50 [1]: 2970 nM
EC50 [3]: 902 nM

Cn1c(=O)c2c(nc3n2CCCCN3CCc2c[nH]c3ccccc23)n(C)c1=O
EC50 [1]: 582 nM

Cn1c(=O)c2c(nc(NCCc3c[nH]c4ccccc34)n2Cc2ccc(Cl)cc2Cl)n(C)c1=O
EC50 [1]: 244 nM
EC50 [3]: 64 nM

C#CCn1c(NCCc2c[nH]c3ccccc23)nc2c1c(=O)n(C)c(=O)n2C
EC50 [1]: 318 nM
EC50 [3]: 247 nM

CCCCCc1cc(O)c2c(c1)OC(C)(C)[C@@H]1CCC(C)=C[C@@H]21 [DRONABINOL]
EC50 [1]: > 10000 nM
EC50 [3]: 3370 nM
EC50 [7]: 38 nM

Cn1c(=O)c2c(nc(NCCc3c[nH]c4ccccc34)n2CCCc2ccccc2)n(C)c1=O
EC50 [1]: 230 nM

Cn1c(=O)c2c(nc(NCCc3c[nH]c4ccccc34)n2Cc2ccc(C(N)=O)cc2)n(C)c1=O
EC50 [1]: 4000 nM
EC50 [3]: 3600 nM

Cn1c(=O)c2c(nc(NCCc3c[nH]c4ccccc34)n2Cc2ccc(Cl)cc2)n(CC#N)c1=O
EC50 [1]: 981 nM
EC50 [3]: 1220 nM

Cn1c(=O)c2c(nc(NCCc3c[nH]c4ccccc34)n2Cc2ccc(C(F)(F)F)cc2)n(C)c1=O
EC50 [1]: 216 nM
EC50 [3]: 136 nM

Cn1c(=O)c2c(nc(NCCc3c[nH]c4ccccc34)n2Cc2ccc(Cl)c(Cl)c2)n(C)c1=O
EC50 [1]: 90 nM
EC50 [3]: 74 nM

Cn1c(=O)c2c(nc(NCCc3c[nH]c4ccccc34)n2Cc2cccc(Br)c2)n(C)c1=O
EC50 [1]: 180 nM
Ki [2]: 344 nM
EC50 [3]: 10 nM

Cn1c(=O)c2c(nc(NCCc3c[nH]c4ccccc34)n2Cc2cccc(F)c2)n(C)c1=O
EC50 [1]: 301 nM

Cn1c(=O)c2c(nc(NCCc3c[nH]c4ccccc34)n2Cc2ccc(F)cc2)n(C)c1=O
EC50 [1]: 124 nM
EC50 [3]: 54 nM

Cn1c(=O)c2c(nc(NCCc3c[nH]c4ccccc34)n2Cc2ccc(Cl)cc2)n(C)c1=O
IC50 [8]: > 10000 nM
EC50 [1]: 54 nM
Ki [2]: 481 nM
EC50 [3]: 19 nM
Ki ([4]; read-out: Ki): 1180 nM
EC50 [9]: > 10000 nM
EC50 [10]: 38 nM

Cn1c(=O)c2c(nc(NCCc3c[nH]c4ccccc34)n2Cc2ccc(S(N)(=O)=O)cc2)n(C)c1=O
EC50 [1]: 10900 nM
EC50 [3]: 6640 nM

Cn1c(=O)c2c(nc(NCCc3c[nH]c4ccccc34)n2Cc2ccc(Cl)cc2)n(CC(F)(F)F)c1=O
EC50 [1]: 711 nM

Cn1c(=O)c2c(nc(NCCc3c[nH]c4ccccc34)n2Cc2ccc(Br)cc2)n(C)c1=O
EC50 [1]: 58 nM

Cn1c(=O)[nH]c2nc(NCCc3c[nH]c4ccccc34)n(Cc3ccc(Cl)cc3)c2c1=O
EC50 [1]: 290 nM
EC50 [3]: 206 nM

COC(=O)c1ccc(Cn2c(NCCc3c[nH]c4ccccc34)nc3c2c(=O)n(C)c(=O)n3C)cc1
EC50 [1]: 488 nM
EC50 [3]: 469 nM

CCCNC(=O)c1ccc(Cn2c(NCCc3c[nH]c4ccccc34)nc3c2c(=O)n(C)c(=O)n3C)cc1
EC50 [1]: 1270 nM
EC50 [3]: 1410 nM

Cn1c(=O)c2c(nc(NCCc3c[nH]c4ccccc34)n2Cc2ccc(N)cc2)n(C)c1=O
EC50 [1]: 241 nM

Cn1c(=O)c2c(nc(NCCc3c[nH]c4ccccc34)n2Cc2cccc(Cl)c2)n(C)c1=O
EC50 [1]: 220 nM
Ki [2]: 896 nM
EC50 [3]: 71 nM

COc1cccc(Cn2c(NCCc3c[nH]c4ccccc34)nc3c2c(=O)n(C)c(=O)n3C)c1
EC50 [1]: 245 nM
EC50 [3]: 166 nM

Cn1c(=O)c2c(nc(NCCc3c[nH]c4ccccc34)n2Cc2ccc(F)c(Cl)c2)n(C)c1=O
EC50 [1]: 251 nM
EC50 [3]: 193 nM

Cn1c(=O)c2c(nc(NCCc3c[nH]c4ccccc34)n2Cc2ccccc2Br)n(C)c1=O
EC50 [1]: 156 nM
Ki [2]: 1690 nM
EC50 [3]: 189 nM

Cn1c(=O)c2c(nc(NCCc3c[nH]c4ccccc34)n2Cc2ccc(Cl)c(F)c2)n(C)c1=O
EC50 [1]: 121 nM

Cn1c(=O)c2c(nc(NCCc3c[nH]c4ccccc34)n2Cc2ccc(Cl)cc2)n(Cc2ccccc2)c1=O
EC50 [1]: 393 nM
EC50 [3]: > 10000 nM

CCC#CCn1c(NCCc2c[nH]c3ccccc23)nc2c1c(=O)n(C)c(=O)n2C
EC50 [1]: 371 nM
EC50 [3]: 254 nM

CCn1c(NCCc2c[nH]c3ccccc23)nc2c1c(=O)n(C)c(=O)n2C
EC50 [1]: 379 nM
EC50 [3]: 190 nM

Cn1c(=O)c2c(nc(NCCc3c[nH]c4ccccc34)n2CCc2ccccc2)n(C)c1=O
EC50 [1]: 288 nM
EC50 [3]: 442 nM

CCCCn1c(NCCc2c[nH]c3ccccc23)nc2c1c(=O)n(C)c(=O)n2C
EC50 [1]: 207 nM
EC50 [3]: 151 nM

Cc1ccc(Cn2c(NCCc3c[nH]c4ccccc34)nc3c2c(=O)n(C)c(=O)n3C)cc1
EC50 [1]: 46 nM
Ki [2]: 827 nM
EC50 [3]: 24 nM
Ki ([4]; read-out: Ki): 3480 nM

C=C(C)[C@@H]1CCC(C)=C[C@H]1c1c(O)cc(O)cc1CCCCC
EC50 [1]: > 10000 nM
EC50 [3]: > 10000 nM

Cn1c(=O)c2c(nc(NCCc3c[nH]c4ccccc34)n2Cc2ccc(Cl)cc2)n(CCO)c1=O
EC50 [1]: 1200 nM

Cn1c(=O)c2c(nc(NCCc3c[nH]c4ccccc34)n2Cc2ccccc2F)n(C)c1=O
EC50 [1]: 128 nM
EC50 [3]: 137 nM

CNS(=O)(=O)c1ccc(Cn2c(NCCc3c[nH]c4ccccc34)nc3c2c(=O)n(C)c(=O)n3C)cc1
EC50 [1]: 3630 nM
EC50 [3]: 3670 nM

Cn1c(=O)c2c(nc(NCCc3c[nH]c4ccccc34)n2CCC2CCCCC2)n(C)c1=O
EC50 [1]: 127 nM

C=CCn1c(NCCc2c[nH]c3ccccc23)nc2c1c(=O)n(C)c(=O)n2C
EC50 [1]: 379 nM
EC50 [3]: 169 nM

CCn1c(=O)n(C)c(=O)c2c1nc(NCCc1c[nH]c3ccccc13)n2Cc1ccc(Cl)cc1
EC50 [1]: 297 nM
EC50 [3]: 95 nM

Cn1c(=O)c2c(nc3n2CCCN3CCc2c[nH]c3ccccc23)n(C)c1=O
EC50 [1]: 1780 nM

Cn1c(=O)c2c(nc(NCCc3c[nH]c4ccccc34)n2Cc2ccccc2)n(C)c1=O
EC50 [1]: 194 nM
EC50 [3]: 149 nM

CCCn1c(NCCc2c[nH]c3ccccc23)nc2c1c(=O)n(C)c(=O)n2C
EC50 [1]: 299 nM
EC50 [3]: 196 nM

Cn1c(=O)c2c(nc(NCCc3c[nH]c4ccccc34)n2Cc2c(Cl)cccc2Cl)n(C)c1=O
EC50 [1]: 559 nM

CCCCC/C=C\C/C=C\C/C=C\C/C=C\CCCC(=O)NCC(=O)O [ARACHIDONOYL GLYCINE]
EC50 [1]: > 10000 nM
EC50 [3]: > 10000 nM

CC(C)c1ccc(Cn2c(NCCc3c[nH]c4ccccc34)nc3c2c(=O)n(C)c(=O)n3C)cc1
EC50 [1]: 150 nM
Ki [2]: 150 nM
Ki ([4]; read-out: Ki): 6280 nM

COc1ccc(Cn2c(NCCc3c[nH]c4ccccc34)nc3c2c(=O)n(C)c(=O)n3C)cc1
EC50 [1]: 171 nM
EC50 [3]: 138 nM
Ki ([4]; cho): Not Active

Cn1c(=O)c2c(nc(NCCc3c[nH]c4ccccc34)n2Cc2ccc([N+](=O)[O-])cc2)n(C)c1=O
EC50 [1]: 280 nM

Cn1c(=O)c2c(nc(NCCc3c[nH]c4ccccc34)n2Cc2ccc(Cl)cc2)n(CCF)c1=O
EC50 [1]: 398 nM
EC50 [3]: 351 nM

CCCn1c(=O)n(C)c(=O)c2c1nc(NCCc1c[nH]c3ccccc13)n2Cc1ccc(Cl)cc1
EC50 [1]: > 10000 nM
EC50 [3]: > 10000 nM

CC(=O)Nc1ccc(Cn2c(NCCc3c[nH]c4ccccc34)nc3c2c(=O)n(C)c(=O)n3C)cc1
EC50 [1]: 281 nM
EC50 [3]: 218 nM

C=CCCn1c(NCCc2c[nH]c3ccccc23)nc2c1c(=O)n(C)c(=O)n2C
EC50 [1]: 447 nM
